Read-outs that look alike come from different tables or passages of the source.
Legend:
beta amyloid production = test: Repressor Release Assay (RRA); format: cell-based; settings: for fold induction at 10 µg/mL / fold induction at 20 µg/mL: read-out: APPI Fold Increase; for fold induction at 20 µg/mL: Conc 20 μg/ml
Protocol: CHO-K1 cells were cultured in whole DMEM media (DMEM—High Glucose with 10% fetal bovine serum, 1% Non-essential Amino Acids, and 1% Penicillin-Streptomycin) at 37° C. with 5% CO2. Two million cells were plated into 10-cm dishes 24 hrs prior to transfection.
Transient transfections were completed as recommended by Gibco BRL using their Lipofectamine Plus system. First, 6 μg of pRSVO-luc and 6 μg of APP-lacI construct DNA were added to 460 μL Opti-Mem transfection media and incubated with 30 μL Plus reagent for 15 minutes. Then, a lipid mixture of 40 μL Lipofectamine reagent and 460 μL Opti-Mem transfection media was incubated with the DNA-Plus reagent mixture for 15 minutes. During the DNA-lipid incubation, the CHO-K1 cells were washed once and covered in 5.0 mL DMEM media without Penicillin-Streptomycin. The DNA-lipid preparation was then layered onto these cells and incubated at 37° C. overnight.
[…] transfected cells per well (100 μL total volume) were plated into sterile, opaque Packard 96-well Culture-Plates in clear DMEM whole media (DMEM—without phenol red) and incubated at 37° C. with 5% CO2 for 3-5 hours.
Compounds were diluted using two different protocols; one protocol was used for compounds supplied neat (weighed powder in vial) and the other protocol was used for compounds supplied in solution (20 mM in DMSO in 96-well plates). For both protocols, 25 mM Hepes and 25 mM Hepes/1% DMSO were prepared fresh to be used as diluent. The Hepes/DMSO was used as the diluent control on all experimental plates.
The following table depicts the steps for compound dilution (please note that the last step was the addition of compound to cells/media in tissue culture plate).
Because some compounds were present in 96-well format at 20 mM, the following represents the protocol for their dilution (note that an average molecular weight of these compounds was used to calculate these dilutions and as above, the last step was the addition of compound to cells/media in tissue culture plate).
Once the compounds were diluted, they were applied in duplicate on cells in tissue culture plates (prepared above). Cells were incubated with compound at 37° C. with 5% CO2 for an additional 36-48 hours.
Luciferase assays (LucLite reagent, Packard) were performed and were read on a Packard TopCount instrument. Media was removed from each 96-well plate and replaced with 100 μL PBS per well (with Mg^2+ and Ca^2+). An equal volume (100 μL) of the LucLite lysis/substrate buffer was added to each well and the plates were sealed and mixed in the dark on a rotary shaker for 15-30 minutes at room temperature. Luciferase readings were then taken on the TopCount instrument. Measurements were expressed as relative light units (RLU) and are calculated and analyzed in MS Excel as follows: […]

CHO-K1 cells = test: Toxicity in RRA (loss of luciferase signal); settings: toxicity = loss of signal (<0.75 fold increase)
Protocol: The beta amyloid inhibitory activity of the compounds of the present invention was determined using the Repressor Release Assay (RRA).
“Fold Increase” refers to the amount of luciferase activity (measured in relative light units) over diluent control. “SEM” refers to the standard error of the mean for fold increase.

[1] = Conc 10 μg/ml, luciferase activity over diluent control
[2] = luciferase activity over diluent control
[3] = luciferase activity (RLU) over diluent control
[4] = Conc 20 μg/ml, 1=non-toxic, 0=toxic

Structure (SMILES)	fold induction at 10 µg/mL (beta amyloid production; [1])	(%)APPI Toxicity (CHO-K1 cells; Conc 10 μg/ml)	fold induction at 20 µg/mL (beta amyloid production; [2])	(%)APPI Toxicity (CHO-K1 cells; Conc 20 μg/ml)	further results
CC[C@H](C)[C@H](NS(=O)(=O)c1cccc(Cl)c1)C(O)(c1ccc(OC)cc1)c1ccc(OC)cc1 [Example 258, 3-chloro-N-((1S,2S)-1-{hydroxy [bis(4-methoxyphenyl)]methyl}-2-methylbutyl)benzenesulfonamide]	1.72	1 (1=non-toxic)			
CC[C@H](C)[C@H](NS(=O)(=O)c1ccccc1F)C(O)c1ccc(F)cc1 (stereo partly drawn) [Example 207, 2-fluoro-N-{(1S,2S)-1-[(4-fluorophenyl) (hydroxy)methyl]-2-methylbutyl}benzenesulfonamide]	1.81	1 (1=non-toxic)			
O=S(=O)(NC1(CO)CCCC1)c1ccc(Br)cc1 [Example 94, 4-bromo-N-[1-(hydroxymethyl)cyclopentyl]benzenesulfonamide]			2.5	1 (1=non-toxic)	
CC[C@H](C)[C@H](NS(=O)(=O)c1ccccc1F)C(O)(c1ccccc1)c1ccccc1 [Example 263, 2-fluoro-N-{(1S,2 S)-1-[hydroxy (diphenyl)methyl]-2-methylbutyl}benzenesulfonamide]	1.57	1 (1=non-toxic)			
O=S(=O)(N[C@H](CO)Cc1cc2ccccc2[nH]1)c1ccc(Br)cc1 [Example 19, 4-bromo-N-[(1S)-2-hydroxy-1-(1H-indol-2-ylmethyl)ethyl]benzenesulfonamide]			1.6	1 (1=non-toxic)	
CC[C@H](C)[C@H](NS(=O)(=O)c1ccc(F)cc1)C(O)(c1ccc(N(C)C)cc1)c1ccc(N(C)C)cc1 [Example 247, N-{(1S,2S)-1-[bis[4-(dimethylamino)phenyl](hydroxy)methyl]-2-methylbutyl}-4-fluorobenzenesulfonamide]	1.54	1 (1=non-toxic)			
C/C=C(\C)C(O)(/C(C)=C/C)[C@@H](NS(=O)(=O)c1ccccc1F)[C@@H](C)CC (stereo partly drawn) [Example 270, 2-fluoro-N-{(1S,3E)-2-hydroxy-3-methyl-2-[(1E)-1-methyl-1-propenyl]-1-[(1S)-1-methylpropyl]-3-pentenyl}benzenesulfonamide]	1.86	1 (1=non-toxic)			
CCCCCC[C@@H](c1ccco1)[C@@H](CO)NS(=O)(=O)c1ccc(Cl)cc1 [Example 68, 4-chloro-N-[(1S,2R)-2-(2-furyl)-1-(hydroxymethyl)octyl]benzenesulfonamide]					fold induction at 20 µg/mL (beta amyloid production; [3]): 2; (%)APPI Toxicity (CHO-K1 cells; [4]): 1 (1=non-toxic)
CC[C@H](C)[C@@H](CO)NS(=O)(=O)c1ccc(F)cc1Cl [Example 5, 2-chloro-4-fluoro-N-[(1S,2S)-1-(hydroxymethyl)-2-methylbutyl]benzenesulfonamide]			2.5	1 (1=non-toxic)	
CC[C@H](C)[C@H](NS(=O)(=O)c1cccc(Cl)c1)C(O)(CC)CC [Example 255, 3-chloro-N-{(1S)-2-ethyl-2-hydroxy-1-[(1S)-1-methylpropyl]butyl}benzenesulfonamide]	2.03	1 (1=non-toxic)			
CC[C@H](C)[C@H](NS(=O)(=O)c1ccc(Cl)cc1)C(O)c1ccc(OC)cc1 (stereo partly drawn) [Example 178, 4-chloro-N-{(1S,2S)-1-[hydroxy(4-methoxyphenyl)methyl]-2-methylbutyl}benzenesulfonamide]	1.68	1 (1=non-toxic)			
CC[C@H](C)[C@H](NS(=O)(=O)c1ccccc1F)C(O)(CC)CC [Example 265, N-{(1S)-2-ethyl-2-hydroxy-1-[(1S)-1-methylpropyl]butyl}-2-fluorobenzenesulfonamide]	1.78	1 (1=non-toxic)			
CCCCC(CO)NS(=O)(=O)c1ccc(Br)cc1 (stereo not shown) [Example 99, 4-bromo-N-[1-(hydroxymethyl)pentyl]benzenesulfonamide]			1.7	1 (1=non-toxic)	
CC[C@H](C)[C@@H](CO)N(Cc1ccc(Cl)cc1)S(=O)(=O)c1ccc(Cl)cc1 [Example 43, 4-chloro-N-(4-chlorobenzyl)-N-[(1S,2S)-1-(hydroxymethyl)-2-methylbutyl]benzenesulfonamide]			5.1	1 (1=non-toxic)	
CC[C@H](C)[C@H](NS(=O)(=O)c1ccc(F)cc1)C(O)(CC)CC [Example 242, N-{(1S)-2-ethyl-2-hydroxy-1-[(1S)-1-methylpropyl]butyl}-4-fluorobenzenesulfonamide]	1.6	1 (1=non-toxic)			
CCC[C@H](CC)[C@@H](CO)NS(=O)(=O)c1ccc(Br)cc1 [Example 77, 4-bromo-N-[(1S,2S)-2-ethyl-1-(hydroxymethyl)pentyl]benzenesulfonamide]					fold induction at 20 µg/mL (beta amyloid production; [3]): 5.9; (%)APPI Toxicity (CHO-K1 cells; [4]): 1 (1=non-toxic)
O=S(=O)(N[C@@H](CO)c1ccc(O)cc1)c1ccc(Br)cc1 [Example 17, 4-bromo-N-[(1R)-2-hydroxy-1-(4-hydroxyphenyl)ethyl]benzenesulfonamide]			2.2	1 (1=non-toxic)	
CC[C@H](C)[C@H](NS(=O)(=O)c1ccc(F)cc1)C(O)(c1ccc(OC)cc1)c1ccc(OC)cc1 [Example 244, 4-fluoro-N-((1S,2S)-1-{hydroxy[bis(4-methoxyphenyl)]methyl}-2-methylbutyl) benzenesulfonamide]		1 (1=non-toxic)			APPI Fold Increase (beta amyloid production; [1]): 1.51 fold; APPI % of Example #98 (beta amyloid production; Conc 10 μg/ml, relative to Example 98): 69.29%
C=CCCC(O)[C@@H](NS(=O)(=O)c1ccc(Br)cc1)[C@@H](C)CC (stereo partly drawn) [Example 161, 4-bromo-N-{(1S)-2-hydroxy-1-[(1S)-1-methylpropyl]-5-hexenyl}benzenesulfonamide]	1.69	1 (1=non-toxic)			
CC[C@H](C)[C@H](NS(=O)(=O)c1ccc(F)cc1)C(C)(C)O [Example 235, 4-fluoro-N-[(1S,2S)-1-(1-hydroxy-1-methylethyl)-2-methylbutyl]benzenesulfonamide]	1.88	1 (1=non-toxic)			
CSc1ccc([C@H](O)[C@H](CO)NS(=O)(=O)c2ccccc2F)cc1 [Example 116, 2-fluoro-N-{(1S,2S)-2-hydroxy-1-(hydroxymethyl)-2-[4-(methylthio)phenyl]ethyl}benzenesulfonamide]			1.6	1 (1=non-toxic)	
CC(C)C[C@H](CO)NS(=O)(=O)c1ccccc1F [Example 113, 2-fluoro-N-[(1R)-1-(hydroxymethyl)-3-methylbutyl]benzenesulfonamide]			1.6	1 (1=non-toxic)	
CC[C@H](C)[C@H](NS(=O)(=O)c1ccc(Cl)cc1)C(O)C(C)(C)C (stereo partly drawn) [Example 172, 4-chloro-N-{(1S)-2-hydroxy-3,3-dimethyl-1-[(1S)-1-methylpropyl]butyl}benzenesulfonamide]	2.51	1 (1=non-toxic)			
CCCCC[C@H](C)[C@@H](CO)NS(=O)(=O)c1ccc(Cl)cc1 [Example 60, 4-chloro-N-[(1S,2S)-1-(hydroxymethyl)-2-methylheptyl]benzenesulfonamide]					fold induction at 20 µg/mL (beta amyloid production; [3]): 4.6; (%)APPI Toxicity (CHO-K1 cells; [4]): 1 (1=non-toxic)

— patent US7166622B2, “Substituted phenylsulfonamide inhibitors of beta amyloid production” (Wyeth, priority 2002, dated 2007)
